Reference: US7410971B2, “1,2-di(cyclic)substituted benzene compounds” (Eisai R&D Management Co., Ltd., priority 2003, dated 2008)

Assays:
[1] = tested on: human peripheral blood neutrophils; test: Human peripheral blood neutrophil adhesion system (adhesion to immobilized HUVEC, PMA-stimulated); type: cell-based; settings: concentration inhibiting by 50% the PMA-stimulated increase in number of adhered BCECF-AM labeled neutrophils on HUVEC immobilized plate
Procedure: Evaluation of Compounds in Human Peripheral Blood Neutrophil Adhesion System
<Preparation of Human Peripheral Blood Neutrophils>
To a plastic centrifugation tube containing 100 units of heparin sodium (Shimizu Pharmaceutical) was added 25 ml of fresh blood sampled from a healthy human. After adding and mixing therewith 8 ml of physiological saline (Otsuka Pharmaceutical) containing 6% Dextran (Nacalai), the mixture was allowed to stand room temperature for 45 minutes for sedimentation of the erythrocytes. The resultant supernatant was transferred to another plastic centrifugation tube and combined with an equivalent volume of phosphate-buffered saline (hereinafter abbreviated as PBS; Sigma), and then centrifuged at 1600 rpm for 7 minutes at room temperature. The obtained hematocyte fraction was suspended in 4 ml of PBS, and the suspension was superposed on 4 ml of Ficoll-Paque™ PLUS (Amersham Biosciences). The resultant bilayer liquid was centrifuged at 2000 rpm for 30 minutes at room temperature, after which the supernatant was removed and the precipitate was suspended in 10 ml of PBS and centrifuged at 1200 rpm for 7 minutes, and the supernatant was removed. The resulting precipitate was suspended in 0.5 ml of PBS again, and then 10 ml of distilled water (Otsuka Pharmaceutical) was added, 0.5 ml of an aqueous solution containing 3 M NaCl was immediately added to restore isotonicity, the mixture was centrifuged at 1200 rpm for 7 minutes, and the obtained precipitate was suspended in PBS containing 1 mg/ml bovine serum albumin (hereinafter abbreviated as BSA; Sigma) again and stored in ice until being used for the experiment.
<Fluorescent Labeling of Human Peripheral Blood Neutrophils>
The obtained neutrophils were suspended in PBS containing 1 mg/ml BSA at 2×10^7 cells/ml. BCECF-AM (Dojin) was added to a final concentration of 5 μM, and the mixture was incubated at 37° C. for 45 minutes. It was then rinsed twice with PBS containing 1 mg/ml BSA by centrifugation, suspended again in PBS containing 1 mg/ml BSA at 5×10^7 cells/ml, and stored in ice until use.
<Preparation of HUVEC Immobilized Plate>
Human umbilical vein endothelial cells (hereinafter abbreviated as HUVEC) were suspended in MCDB131 medium (Chlorella Industries) containing 10% fetal calf serum and 30 μg/ml endothelial cell growth supplement (Becton Dickinson Bioscience). The suspension was added at 7.5×10^3 cells/well to a 96-well plate (Iwaki) immobilized with type I collagen, and cultured for 3 days in a CO2 incubator (Hirasawa). Upon confirming confluency of the cells, the supernatant was discarded, the plate was rinsed twice with PBS, and then PBS containing 0.1% glutaraldehyde (Kanto Kagaku) was added at 100 μl/well and the HUVECs were immobilized for 5 minutes. The supernatant was discarded and the plate was washed twice with PBS, and then PBS was added at 100 μl/well and the mixture was stored at 4° C. until use.
To 6.5 ml of RPMI-1640 medium (Sigma) containing 1 mg/ml of BSA were added 0.5 ml of a suspension of BCECF-AM labeled neutrophils at 5×10^7/ml stored in ice, which was mixed, and the mixture was added at 80 μl/well to a HUVEC immobilized plate. […] The supernatant was removed from the plate, which was then washed several times with RPMI-1640 at 100 μl/well, and then PBS containing 0.1% NP-40 (Calbiochem) was added thereto at 100 μl/well and the fluorescent intensity was measured with an ARVO™SX 1420 multi label counter (Wallac) to determine the number of adhered cells. […]

[2] = tested on: colon-infiltrating neutrophils (myeloperoxidase enzyme activity); test: Oxazolone-induced colon neutrophil infiltration model; type: in vivo, Balb/c mice; settings: Mus musculus, po, 30 mg/kg orally 30 minutes prior to intrarectal oxazolone, colon myeloperoxidase activity 4 hours after, vs oxazolone control group, read-out: Inhibitory rate (%)
Procedure: Evaluation of Compounds in Oxazolone-Induced Colon Neutrophil Infiltration Model
<Sensitization with Oxazolone>
Five- to six-week-old male Balb/c mice (Charles River Japan) were shaven at the abdomen to an approximately 2 cm square area. A 100% ethanol solution containing 3% 4-ethoxymethylene-2-phenyl-2-oxazolin-5-one (hereinafter referred to as “oxazolone”; Sigma) was applied at 150 μl onto the abdomen of each mouse.
<Preparation of Emulsion Containing Oxazolone>
Distilled water (Otsuka Pharmaceutical) was added in an equivalent volume to 100% peanut oil (Kanto Kagaku) containing 1% oxazolone, and the components were vigorously mixed with a glass syringe (Top Co.), to prepare an emulsion containing 0.5% oxazolone.
<Induction with Oxazolone>
The mice were fasted on the 3rd day after oxazolone sensitization, and were injected with 100 μl of the emulsion containing 0.5% oxazolone prepared in the way described above intrarectally at a site approximately 3 cm from the anus under ether anesthesia on the 4th day.
<Colon-Infiltrating Neutrophil Assay>
Each compound was suspended or dissolved in an aqueous solution containing 0.5% methyl cellulose (Wako), and orally administered at 30 mg/kg 30 minutes prior to the intrarectal injection of oxazolone emulsion. Four hours after the intrarectal injection of oxazolone, mice were sacrificed by cervical dislocation, and colons were extirpated, dissected in the longitudinal direction, washed with physiological saline, and transferred to ice-cooled plastic centrifugation tubes. After adding 1 ml of 50 mM potassium phosphate buffer (hereinafter abbreviated as KPB) (pH 6.0) to the tube, and the tissue were homogenized with PHYSCOTRON (Microtec Nition Co., Ltd.), 2 ml of 50 mM KPB (pH 6.0) was added and the mixture was centrifuged at 3000 rpm, 4° C. for 10 minutes and the supernatant was removed. To the resultant precipitate was added 1 ml of 50 mM KPB (pH 6.0) containing 0.5% hexadecyltrimethyl-ammonium bromide (Sigma), and freeze-thawed 3 to 5 times using liquid nitrogen and hot water, centrifuged at 3000 rpm, 4° C. for 10 minutes to yield a supernatant. The myeloperoxidase enzyme activity in the supernatant was assayed in the following manner. Specifically, to 10 μl of the obtained supernatant was added 200 μl of 50 mM KPB (pH6.0) containing 0.017% o-dianisidine (Sigma) and 0.0005% hydrogen peroxide (Wako), incubated at 37° C., and the change in absorbance at 450 nm was continuously measured for 1 minute using an EL340 Automated Microplate Reader (BIO-TEK) in kinetic mode. The units were the rate of change in absorbance per minute (mO.D./min.). With regard to the effect of each compound, the inhibitory rate (%) with respect to the oxazolone control group, i.e. the oxazolone-injected/compound-free group, was shown in the table 3.

SMILES | IC50 [1] | inhibition in vivo at 30 mg/kg [2]
CCCCN1CCN(c2cc(C#N)ccc2[C@H]2CC[C@H](C(C)(C)C)CC2)CC1.Cl [Example 13, trans-4-(4-t-Butylcyclohexyl)-3-(4-butylpiperazin-1-yl)benzonitrile hydrochloride] | 53.9 µM | 13%
CCCCN1CCN(c2cc(C#N)ccc2[C@H]2CC[C@@H](C(C)(C)C)CC2)CC1.Cl [Example 12, cis-4-(4-t-Butylcyclohexyl)-3-(4-butylpiperazine-1-yl)benzonitrile hydrochloride] | 18.3 µM | 34%
